We go through 30 compounds from patent US20220177462A1, “SUBSTITUTED HETEROCYCLIC AMIDE COMPOUND AND PREPARATION METHOD THEREFOR AND PHARMACEUTICAL USE THEREOF” (GENFLEET THERAPEUTICS (SHANGHAI) INC., priority 2019, published 2022).

SMILES strings stand for the structures.

The test system of the experiment is U937 cells. Kind of experiment: Inhibitory activity against programmed necroptosis of U937 cells induced by TNF-α. The settings on record: Homo sapiens, U-937, 48 h, 100 ng/ml human TNF-α and 25 μM Q-VD-Oph, 48 hours, CellTiter-Glo survival rate; read-out: U937 IC50. The class given is cell-based, human. As to the method:
The U937 cell strain which was used in the following Testing Examples was derived from ATCC, No.: CRL-1593.2, batch No.: 63479999, culture medium: RPMI-1640+10% FBS.
The compound was dissolved in DMSO to prepare a 10 mM stock solution. The stock solution was diluted in 3.16 folds with DMSO to a series of gradient concentrations. Then, the resultant solution was diluted in 250 folds with a culture medium to prepare a working solution. The U937 cells were inoculated in a 384-well plate at 5000/well. The compound at respective concentration was added to each of the cells, and was mixed with the cells homogeneously. 100 ng/ml human TNF-α and 25 μM Q-VD-Oph were added simultaneously to induce programmed necroptosis of the cells. The final concentration of DMSO was 2%. The cells were placed in the incubator at 37° C. and 5% CO2 for further culture of 48 hours. Celltiter-Glo reagent was used for detection. After adequate pyrolysis reaction, the chemiluminescence readout value was recorded by a microplate reader. The survival rate was calculated from the detection results using the equation as follows: SR (%)=(RLU compound−RLU blank)/(RLU high control−RLU blank)×100%. The survival rate was plotted against the final concentration of respective compound using a 4-parameter fitting to calculate the inhibitory IC50 of the compound against programmed necroptosis of cells induced by TNF-a.
As for `COc1ncc(-c2ccc3nc(N)sc3c2)cc1C(=O)NC(C)c1c(F)cccc1OC(F)(F)F` (stereo not drawn) [Compound Z48, 5-(2-aminobenzo[d]thiazol-6-yl)-N-(1-(2-fluoro-6-(trifluoromethoxy)phenyl)ethyl)-2-methoxynicotinamide], the IC50 is 88 nM. As for `COc1ncc(-c2ccc3nc(N)sc3c2)cc1C(=O)N1CCCC(Cc2ccc(F)cc2)C1` (stereo not drawn) [Compound Z17, (5-(2-aminobenzo[d]thiazol-6-yl)-2-methoxypyridin-3-yl)(3-(4-fluorobenzyl)piperidin-1-yl)methanone], the figure is 4 nM. Regarding `COc1nc(C)c(-c2ccc3nc(N)sc3c2)cc1C(=O)NC(C)c1ccccc1OC(F)(F)F` (stereo not drawn) [Compound Z37, 5-(2-aminobenzo[d]thiazol-6-yl)-2-methoxy-6-methyl-N-(1-(2-(trifluoromethoxy)phenyl)ethyl)nicotinamide], the IC50 was 45 nM. Then `Cn1ncc2c(-c3ccn4nc(N)nc4c3)cc(C(=O)NCc3cccnc3OC3CCCC3)cc21` [Compound Z57, 4-(2-amino-[1,2,4]triazolo[1,5-a]pyridin-7-yl)-N-((2-(cyclopentyloxy)pyridin-3-yl)methyl)-1-methyl-1H-indazole-6-carboxamide], with 11 nM; and `CC(NC(=O)c1cnc(Cl)c(-c2ccc3nc(N)sc3c2)c1)c1ccccc1OC(F)(F)F` (stereo not drawn) [Compound Z8, 5-(2-aminobenzo[d]thiazol-6-yl)-6-chloro-N-(1-(2-(trifluoromethoxy)phenyl)ethyl)nicotinamide], with 88 nM. In the case of `Cc1ncc(-c2ccc3nc(N)sc3c2)cc1C(=O)NC(C)c1cc(OC(F)(F)F)ccc1F` (stereo not drawn) [Compound Z43, 5-(2-aminobenzo[d]thiazol-6-yl)-N-(1-(2-fluoro-5-(trifluoromethoxy)phenyl)ethyl)-2-methylnicotinamide], the IC50 came out at 3 nM. Regarding `COc1ncc(-c2ccc3nc(N)sc3c2)cc1C(=O)NCc1cccnc1OC1CCCC1` [Compound Z52, 5-(2-aminobenzo[d]thiazol-6-yl)-N-((2-(cyclopentyloxy)pyridin-3-yl)methyl)-2-methoxynicotinamide], the IC50 was determined as 19 nM. As for `COc1ncc(-c2ccc3nc(N)sc3c2)cc1C(=O)NCc1ccccc1OCC1CC1` [Compound Z20, 5-(2-aminobenzo[d]thiazol-6-yl)-N-(2-(cyclopropylmethoxy)benzyl)-2-methoxynicotinamide], the figure is 18 nM; as for `COc1ncc(-c2ccc3nc(N)sc3c2)cc1C(=O)NCCCc1ccccc1` [Compound Z16, 5-(2-aminobenzo[d]thiazol-6-yl)-2-methoxy-N-(3-phenylpropyl)nicotinamide], 26 nM; as for `CC(NC(=O)c1cc(-c2ccc3nc(N)sc3c2)cnc1N)c1ccccc1OC(F)(F)F` (stereo not drawn) [Compound Z46, 2-amino-5-(2-aminobenzo[d]thiazol-6-yl)-N-(1-(2-(trifluoromethoxy)phenyl)ethyl)nicotinamide], 76 nM. Then `Cc1ncc(-c2ccc3nc(N)sc3c2)cc1C(=O)NCc1c(F)cccc1OCC1CCCC1` [Compound Z12, 5-(2-aminobenzo[d]thiazol-6-yl)-N-(2-(cyclopentylmethoxy)-6-fluorobenzyl)-2-methylnicotinamide], with 10 nM; and `CC(NC(=O)c1cc(-c2ccn3nc(N)nc3c2)c2cc[nH]c2c1)c1ccccc1OC(F)(F)F` (stereo not drawn) [Compound Z25, 4-(2-amino-[1,2,4]triazolo[1,5-a]pyridin-7-yl)-N-(1-(2-(trifluoromethoxy)phenyl)ethyl)-1H-indole-6-carboxamide], with 140 nM; and `Cn1ncc2c(-c3ccn4nc(N)nc4c3)cc(C(=O)NCc3cc(F)ccc3OCC3CC3)cc21` [Compound Z59, 4-(2-amino-[1,2,4]triazolo[1,5-a]pyridin-7-yl)-N-(2-(cyclopropylmethoxy)-5-fluorobenzyl)-1-methyl-1H-indazole-6-carboxamide], with 24 nM. As for `COc1nc(C)c(-c2ccc3nc(N)sc3c2)cc1C(=O)NCc1ccccc1OC(C)C` [Compound Z42, 5-(2-aminobenzo[d]thiazol-6-yl)-N-(2-isopropoxybenzyl)-2-methoxy-6-methylnicotinamide], the figure is 43 nM; as for `CC(NC(=O)c1cc(-c2ccn3nc(N)nc3c2)cc2[nH]ccc12)c1ccccc1OC(F)(F)F` (stereo not drawn) [Compound Z24, 6-(2-amino-[1,2,4]triazolo[1,5-a]pyridin-7-yl)-N-(1-(2-(trifluoromethoxy)phenyl)ethyl)-1H-indole-4-carboxamide], 151 nM. On to `COc1nc(C)c(-c2ccc3nc(N)sc3c2)cc1C(=O)NCc1cccnc1OC1CCCC1` [Compound Z41, 5-(2-aminobenzo[d]thiazol-6-yl)-N-((2-(cyclopentyloxy)pyridin-3-yl)methyl)-2-methoxy-6-methylnicotinamide], for which the IC50 was 14 nM. Then `COc1nc(C)c(-c2ccc3nc(N)sc3c2)cc1C(=O)NCc1ccccc1OC1CCOC1` (stereo not drawn) [Compound Z40, 5-(2-aminobenzo[d]thiazol-6-yl)-2-methoxy-6-methyl-N-(2-((tetrahydrofuran-3-yl)oxy)benzyl)nicotinamide], with 68 nM; and `CC(c1ccc(F)cc1)n1cc(NC(=O)c2cc(-c3ccn4nc(N)nc4c3)c3cnn(C)c3c2)cn1` (stereo not drawn) [Compound Z60, 4-(2-amino-[1,2,4]triazolo[1,5-a]pyridin-7-yl)-N-(1-(1-(4-fluorophenyl)ethyl)-1H-pyrazol-4-yl)-1-methyl-1H-indazole-6-carboxamide], with 213 nM; and `COc1ncc(-c2ccc3nc(N)sc3c2)cc1C(=O)NCc1ccccc1OC(C)C` [Compound Z50, 5-(2-aminobenzo[d]thiazol-6-yl)-N-(2-isopropoxybenzyl)-2-methoxynicotinamide], with 49 nM. On to `COc1ncc(-c2ccc3nc(N)sc3c2)cc1C(=O)NCc1c(F)cccc1OC1CCCC1` [Compound Z18, 5-(2-aminobenzo[d]thiazol-6-yl)-N-(2-(cyclopentyloxy)-6-fluorobenzyl)-2-methoxynicotinamide], for which the IC50 was 4 nM. As for `COc1ncc(-c2ccc3nc(N)sc3c2)cc1C(=O)NCc1cc(F)ccc1OC1CCCC1` [Compound Z19, 5-(2-aminobenzo[d]thiazol-6-yl)-N-(2-(cyclopentyloxy)-5-fluorobenzyl)-2-methoxynicotinamide], the figure is 7 nM; as for `Cn1ncc2c(-c3ccn4nc(N)nc4c3)cc(C(=O)NCc3cc(F)ccc3OC3CCOCC3)cc21` [Compound Z61, 4-(2-amino-[1,2,4]triazolo[1,5-a]pyridin-7-yl)-N-(5-fluoro-2-((tetrahydro-2H-pyran-4-yl)oxy)benzyl)-1-methyl-1H-indazole-6-carboxamide], 2 nM. Then `COc1ncc(C(=O)NCc2cc(F)ccc2OC2CCCC2)cc1-c1ccc2nc(N)sc2c1` [Compound Z13, 5-(2-aminobenzo[d]thiazol-6-yl)-N-(2-(cyclopentyloxy)-5-fluorobenzyl)-6-methoxynicotinamide], with 17 nM; and `COc1ncc(-c2ccc3nc(N)sc3c2)cc1C(=O)NCc1ccccc1OC1CCOC1` (stereo not drawn) [Compound Z53, 5-(2-aminobenzo[d]thiazol-6-yl)-2-methoxy-N-(2-((tetrahydrofuran-3-yl)oxy)benzyl)nicotinamide], with 42 nM; and `COc1ncc(-c2ccc3nc(N)sc3c2)cc1C(=O)NCc1cc(OC(F)(F)F)ccc1F` [Compound Z14, 5-(2-aminobenzo[d]thiazol-6-yl)-N-(2-fluoro-5-(trifluoromethoxy)benzyl)-2-methoxynicotinamide], with 6 nM. As for `Cn1ncc2c(-c3ccn4nc(N)nc4c3)cc(C(=O)NCc3cc(F)ccc3OC3CCOC3)cc21` (stereo not drawn) [Compound Z62, 4-(2-amino-[1,2,4]triazolo[1,5-a]pyridin-7-yl)-N-(5-fluoro-2-((tetrahydrofuran-3-yl)oxy)benzyl)-1-methyl-1H-indazole-6-carboxamide], the figure is 30 nM; as for `COc1ncc(-c2ccc3nc(N)sc3c2)cc1C(=O)Nc1cnn(C(C)c2ccc(F)cc2)c1` (stereo not drawn) [Compound Z63, 5-(2-aminobenzo[d]thiazol-6-yl)-N-(1-(1-(4-fluorophenyl)ethyl)-1H-pyrazol-4-yl)-2-methoxynicotinamide], 7 nM; as for `COc1ncc(-c2ccc3nc(N)sc3c2)cc1C(=O)NC(C)c1ccccc1OC(F)(F)F` (single isomer, unassigned) [Compound Z1, 5-(2-aminobenzothiazol-6-yl)-2-methoxy-N-(1-(2-(trifluoromethoxy)phenyl)ethyl)nicotinamide], 52 nM. With `COc1nc(C)c(-c2ccc3nc(N)sc3c2)cc1C(=O)NCc1cc(F)cc(F)c1OCC1CC1` [Compound Z38, 5-(2-aminobenzo[d]thiazol-6-yl)-N-(2-(cyclopropylmethoxy)-3,5-difluorobenzyl)-2-methoxy-6-methylnicotinamide], the IC50 amounted to 14 nM.

Regarding `Nc1nc2ccc(-c3cncc(C(=O)NCc4ccccc4OCC4CC4)c3)cc2s1` [Compound Z22, 5-(2-aminobenzo[d]thiazol-6-yl)-N-(2-(cyclopropylmethoxy)benzyl)nicotinamide], the IC50 came out at 62 nM.

The term IC50 denotes the point on the concentration scale where inhibition reaches its midpoint.
